Experimental data from patent US20190209548A1, “LINKED DIARYL COMPOUNDS WITH ANTICANCER PROPERTIES AND METHODS OF USING THE SAME” (University of Maryland, College Park, priority 2014, published 2019).
Values joined by “and” are separate entries in the source; they are usually repeats but may differ in a detail not shown here. Identical values can stand only once. Like-named read-outs stand apart in the source and are kept apart here.

How the values were obtained:
c-kit1 = assay: 1H-NMR of c-kit1 with ligand; type: binding; conditions: ligand 150 μM, DNA 300 μM
Method: (§1) NMR measurements for DNA binding of triazene ligands. The procedure was followed as described previously. The ligand concentration was 150 μM, and that of the DNA (c-kit1 or 8 bp AT) was […]. The buffer used was 10 mM potassium phosphate (pH 7.5) containing 137 mM NaCl, 1 mM EDTA, and also contained 10% D2O. The sample was initially heated up to 95° C. for 5 min without the ligand and then cooled down to room temperature in 15 min. Subsequently, the sample was incubated at 4° C. for ˜12 h without the ligand (for G-quadruplex formation). Then, the ligand was added and incubated for 2 h before the NMR measurement (25° C.).
(§2) NMR of DNA/DNA analogue complexes. NMR of spectra (c-kit1 or 8 bp A T) in absence or presence of ligands were obtained following precedent. The sample solution containing c-kit1 (300 μM), D2O (10%, v/v), NaCl (137 mM), EDTA (1 mM) and potassium phosphate buffer (10 mM, pH 7.5) was heated up to 95° C. for 5 min, then cooled down to room temperature, and subsequently incubated for another 12 hours at 4° C. The DMZ analogue (150 μM) was then added and incubated for 2 hours at 4° C. The ^1H NMR spectra were recorded at 25° C., using NaOAc as an internal standard (NaOAc was in a sealed capillary tube that was inserted in the NMR tube). The ^1H NMR spectra was recorded on Bruker Avance III HD 800 MHz spectrometer with a CPQCI cryoprobe.

8 bp AT = assay: 1H-NMR of duplex DNA with ligand; type: binding; conditions: ligand 150 μM, DNA 300 μM
Method: as §1, §2

F21T = assay: FRET melting assay, F21T; type: binding; conditions: dual-labeled DNA 0.2 μM, DMZ analogues 1 μM, potassium cacodylate 60 mM pH 7.2
Method: (§3) Fluorescence resonance energy transfer (FRET) assay to determine Tm in absence and presence of ligands. Dual-labelled DNA was diluted from stock (50 μM) to 400 nM in 60 mM potassium cacodylate buffer (pH 7.2) and then annealed by heating at 85° C. for 10 min followed by cooling to room temperature in the heating block. Compounds were diluted from stock (20 mM in DMSO) to 2 μM in 60 mM cacodylate buffer (pH 7.2). 25 μL annealed DNA was added to 96-well plate followed by 25 μL diluted compounds. The sequences of labelled oligonucleotides were as follows: F21T 21-mer (5′-FAM-GGGTTAGGGTTAGGGTTAGGG-TAMRA-3′) (SEQ ID NO:11), c-kit2 26-mer (5′-FAM-CCCGGGCGGGCGCGAGGGAGGGGAGG-TAMRA-3′) (SEQ ID NO:12), k-RAS21R 21-mer (5′-FAM-AGGGCGGTGTGGGAAGAGGGA-TAMRA-3′) (SEQ ID NO:13), c-MYC 22-mer (5′-FAM-TGAGGGTGGGTAGGGTGGGTAA-TAMRA-3′) (SEQ ID NO:14) and duplex 26-mer (5′-FAM-TATAGCTATATTTTTTTATAGCTATA-TAMRA-3′) (SEQ ID NO: 15). Measurements were made in triplicate by using a LightCycler 480 System RT-PCR machine (Roche) and average values were reported. Fluorescence readings were made with excitation at 450-495 nm and detection at 515-545 nm, taken at intervals of 1.2° C./min in the range 25° C. to 95° C.

c-MYC = assay: FRET melting assay, c-MYC; type: binding; conditions: dual-labeled DNA 0.2 μM, DMZ analogues 1 μM, potassium cacodylate 60 mM pH 7.2
Method: as §3

c-kit2 = assay: FRET melting assay, c-kit2; type: binding; conditions: dual-labeled DNA 0.2 μM, DMZ analogues 1 μM, potassium cacodylate 60 mM pH 7.2
Method: as §3

k-RAS21R = assay: FRET melting assay, k-RAS21R; type: binding; conditions: dual-labeled DNA 0.2 μM, DMZ analogues 1 μM, potassium cacodylate 60 mM pH 7.2
Method: as §3

duplex = assay: FRET melting assay, duplex DNA; type: binding; conditions: dual-labeled DNA 0.2 μM, DMZ analogues 1 μM, potassium cacodylate 60 mM pH 7.2
Method: as §3

OVCAR-3 = assay: WST-1 IC50 determination, OVCAR-3; type: cell-based, human; conditions: 72 hours, WST-1; for IC50: read-out: Anticancer activity IC50 ± SD, OVCAR-3
Method: (§4) Cell lines and culturing. The following human cell lines were purchased from ATCC (ATCC, Manassas, Va.): prostate cancer cells (PC-3), triple negative breast cancer cells (MDA-MB-231), ovarian cancer cells (OVCAR-3), normal bone marrow (NBM) and normal fibroblast cells (MCR5A). MDA-MB-231 cells were grown at 37° C. with 5% CO2 atmosphere with DMEM (Life technologies, Carlsbad, Calif.) supplemented with heat-inactivated 10% (V/V) fetal bovine serum. OVCAR-3 and PC-3 cells were grown at 37° C. with 5% CO2 atmosphere with RPMI (Life technologies, Carlsbad, Calif.) supplemented with heat-inactivated 10% (V/V) fetal bovine serum. Cell lines were grown and maintained according to ATCC recommendations.
(§5) IC50 determination. Cell lines were seeded into 96-well plates the afternoon prior to treatment. Cell seeding number was determined by growing cells in log phase growth during drug treatment. Approximately 18 hours later, compounds were semi-serially diluted in dimethyl sulfoxide (DMSO) and then growth medium, and added to cells. Plates were incubated for 72 hours prior to addition of WST-1 (Promega, Madison Wis.). Plates were read after 4 additional hours of incubation at 37° C. using a Bio-Tek Synergy HT plate reader (Bio-Tek, Winooski, Vt.). Data was analyzed, graphed and IC50s generated using GraphPad Prism Software (Graphpad, La Jolla, Calif.).
(§6) IC50 determination: For the determination of IC50 for the azolamide class, the same protocol as described previously was followed.

PC-3 = assay: WST-1 IC50 determination, PC-3; type: cell-based, human; conditions: 72 hours, WST-1; for IC50: read-out: Anticancer activity IC50 ± SD, PC-3
Method: as §4, §5, §6

MDA-MB-231 = assay: WST-1 IC50 determination, MDA-MB-231; type: cell-based, human; conditions: 72 hours, WST-1; for IC50: read-out: Anticancer activity IC50 ± SD, MDA-MB-231
Method: as §4, §5, §6

c-MYC Pu27 = assay: PCR stop assay, Pu27 template; type: biochemical
Method: (§7) PCR Stop Assay. This assay was performed by modifying a previously published protocol.
(§8) To the PCR reaction mixture (25 μL), 1×PCR buffer (New England Biolabs), 5 μM Pu27 and Pu27rev oligomers, various concentrations of ligands (DMZ, TMPyP4, DMZ1, DMZ9 and DMZ13) were added and incubated at 4° C. for 6 h. After that, 1 mM dNTPs, 5 units of Taq DNA polymerase (New England Biolabs) were added and PCR reactions were performed in a thermocycler, with the following conditions: 94° C. for 3 min, followed by 20 repeated cycles each having 94° C. for 30 s, 58° C. for 30 s, and 72° C. for 30 s. After PCR, amplified products were analyzed on 12% polyacrylamide gel with 1×TBE and SYBR Gold stained. This assay was also performed under the same conditions with Pu27-13,14 and Pu27rev.

Pu27-13,14 = assay: PCR stop assay, mutated control template; type: biochemical
Method: as §7, §8

| Structure (SMILES) | change of c-kit1 imino proton NMR spectrum (c-kit1) | change of duplex DNA imino proton NMR spectrum (8 bp AT) | ΔTm F21T (F21T) | ΔTm c-MYC (c-MYC) | ΔTm c-kit2 (c-kit2) | ΔTm k-RAS21R (k-RAS21R) | ΔTm duplex (duplex) | IC50 (OVCAR-3; Homo sapiens, OVCAR-3) | Anticancer activity IC50 ± SD, PC-3 (PC-3) | Anticancer activity IC50 ± SD, MDA-MB-231 (MDA-MB-231) | polymerization/extension of oligomers Pu27 and Pu27rev (c-MYC Pu27; 25 μM compound) | PCR product with non-G-quadruplex template (Pu27-13,14; 25 μM compound) | Anticancer activity IC50 ± SD, OVCAR-3 (OVCAR-3) | IC50 (OVCAR-3) | IC50 (PC-3) | IC50 (MDA-MB-231) | polymerization/extension of oligomers Pu27 and Pu27rev (c-MYC Pu27; 100 μM compound) | PCR product with non-G-quadruplex template (Pu27-13,14; 100 μM compound) |
| --- | --- | --- | --- | --- | --- | --- | --- | --- | --- | --- | --- | --- | --- | --- | --- | --- | --- | --- |
| N=C(N)c1ccc(/N=N/Nc2ccc(C(=N)N)cc2)cc1 [DMZ, Diminazene aceturate, reference compound] | direct binding | considerable changes in the imino region | 10.05 ± 0.52 °C | 12.97 ± 0.26 °C | 11.70 ± 0.26 °C | 18.3 °C and 18.27 ± 0.52 °C | 6.4 °C | > 25 µM | NE (NE means not effective. Cell viability was the same or greater than 75% of the DMSO control at 20 μM compound concentration.) | NE (NE means not effective. Cell viability was the same or greater than 75% of the DMSO control at 20 μM compound concentration.) | showed inhibition | amplified PCR product was observed |  |  |  |  |  |  |
| N=C(N)c1ccc(NN=Nc2ccccc2)cc1 [DMZ1] | direct binding | only DMZ (but not Triazene-1) showed considerable changes | 4.20 ± 0.00 °C | 7.87 ± 0.53 °C | 6.40 ± 0.26 °C | 5.47 ± 0.93 °C |  |  | NE (NE means not effective. Cell viability was the same or greater than 75% of the DMSO control at 20 μM compound concentration.) | NE (NE means not effective. Cell viability was the same or greater than 75% of the DMSO control at 20 μM compound concentration.) |  |  | NE (NE means not effective. Cell viability was the same or greater than 75% of the DMSO control at 20 μM compound concentration.) |  |  |  |  |  |
| N=C(N)c1ccc(N=NNc2cccc(C#Cc3ccc(F)cc3)c2)cc1 [DMZ9] | changes in peak positions and shapes | no change was observed | 4.20 ± 0.00 °C | 8.22 ± 0.45 °C | 5.67 ± 0.26 °C | 6.58 ± 1.29 °C | NE (NE means not effective binding (ΔTm < 1° C.)) |  |  |  |  |  |  | 5 ± 0.1 µM | 5.3 ± 1.6 µM | 5.5 ± 0.1 µM | completely inhibited | amplified PCR product was observed |
| N=C(N)c1ccc(/N=N/Nc2ccccc2C#Cc2ccc(F)cc2)cc1 [DMZ13] | changes in peak positions and shapes | no change was observed | 4.20 ± 0.00 °C | 7.15 ± 0.00 °C | 5.12 ± 0.26 °C | 2.01 ± 0.00 °C | NE (NE means not effective binding (ΔTm < 1° C.)) |  |  |  |  |  |  | 9.5 ± 2.2 µM | 7.4 ± 0.2 µM | 6.2 ± 1 µM | completely inhibited | amplified PCR product was observed |
